Assay results: ChEMBL document CHEMBL3745645, “Synthesis, in vitro antitumor activity, dihydrofolate reductase inhibition, DNA intercalation and structure-activity relationship studies of 1,3,5-triazine analogues” (Bioorg Med Chem Lett, 2016)
Activity calls are given as the source filed them. The rule behind the calls is not given here.

How the values were obtained:
[1] = (§1) Cytotoxicity against human OVCAR4 cells at 10 uM after 48 hrs by SRB assay; format: functional; settings: OVCAR-4, 48 h, read-out: GI
M14 = test: Cytotoxicity against human M14 cells at 10 uM after 48 hrs by SRB assay; format: functional
K562 [2] = test: Cytotoxicity against human K562 cells after 48 hrs by SRB assay; format: functional; settings: K562, 48 h
RPMI-8226 = test: Cytotoxicity against human RPMI8226 cells at 10 uM after 48 hrs by SRB assay; format: functional
OVCAR-3 = test: Cytotoxicity against human OVCAR3 cells at 10 uM after 48 hrs by SRB assay; format: functional
MDA-MB-435 = test: Cytotoxicity against human MDA-MB-435 cells at 10 uM after 48 hrs by SRB assay; format: functional
HCT-116 = test: Cytotoxicity against human HCT116 cells at 10 uM after 48 hrs by SRB assay; format: functional
[3] = Cytotoxicity against human Hs 578T cells at 10 uM after 48 hrs by SRB assay; format: functional; settings: read-out: GI
RXF 393 = test: Cytotoxicity against human RXF393 cells at 10 uM after 48 hrs by SRB assay; format: functional
CCRF-CEM = test: Cytotoxicity against human CCRF-CEM cells after 48 hrs by SRB assay; format: functional; settings: for GI50 / TGI: pooled result: one value given for 6 cell lines, strains, targets or settings
ACHN = test: Cytotoxicity against human ACHN cells at 10 uM after 48 hrs by SRB assay; format: functional; settings: read-out: GI
UACC-257 = test: Cytotoxicity against human UACC257 cells at 10 uM after 48 hrs by SRB assay; format: functional
HCC 2998 = test: Cytotoxicity against human HCC2998 cells at 10 uM after 48 hrs by SRB assay; format: functional
BT-549 = test: Cytotoxicity against human BT549 cells at 10 uM after 48 hrs by SRB assay; format: functional
Calf thymus DNA [4] = test: Binding affinity to calf thymus DNA assessed as melting temperature by spectrophotometric analysis (reference value: 60 degC); format: nucleic-acid assay; settings: Bos taurus
A549 [5] = test: Cytotoxicity against human A549 cells after 48 hrs by SRB assay; format: functional; settings: A549, 48 h, pooled result: one value given for 8 cell lines, strains, targets or settings
786-0 = test: Cytotoxicity against human 786-0 cells after 48 hrs by SRB assay; format: functional; settings: 786-0, 48 h, pooled result: one value given for 8 cell lines, strains, targets or settings
[6] = Cytotoxicity against human PC3 cells after 48 hrs by SRB assay; format: functional; settings: PC-3, 48 h; for GI50 / TGI: pooled result: one value given for 2 cell lines, strains, targets or settings
SF-539 = test: Cytotoxicity against human SF539 cells at 10 uM after 48 hrs by SRB assay; format: functional
K562 [7] = test: Cytotoxicity against human K562 cells at 10 uM after 48 hrs by SRB assay; format: functional; settings: K562, 48 h, read-out: GI
SF-295 = test: Cytotoxicity against human SF295 cells at 10 uM after 48 hrs by SRB assay; format: functional
[8] = Cytotoxicity against human SF268 cells after 48 hrs by SRB assay; format: functional; settings: SF-268, 48 h, pooled result: one value given for 6 cell lines, strains, targets or settings
HL-60(TB) = test: Cytotoxicity against human HL-60(TB) cells at 10 uM after 48 hrs by SRB assay; format: functional
Calf thymus DNA [9] = test: Binding affinity to calf thymus DNA by UV-vis spectrometric analysis; format: nucleic-acid assay; settings: Bos taurus
MCF7 = test: Cytotoxicity against human MCF7 cells after 48 hrs by SRB assay; format: functional; settings: MCF7, 48 h, pooled result: one value given for 6 cell lines, strains, targets or settings
TK-10 = test: Cytotoxicity against human TK10 cells at 10 uM after 48 hrs by SRB assay; format: functional
SK-MEL-2 = test: Cytotoxicity against human SK-MEL-2 cells at 10 uM after 48 hrs by SRB assay; format: functional
HCT-15 = test: Cytotoxicity against human HCT15 cells at 10 uM after 48 hrs by SRB assay; format: functional
UACC-62 = test: Cytotoxicity against human UACC62 cells at 10 uM after 48 hrs by SRB assay; format: functional
[10] = Cytotoxicity against human DU145 cells after 48 hrs by SRB assay; format: functional; settings: DU-145, 48 h, read-out: LC50 (the source's name)
[11] = Cytotoxicity against human LOXIMVI cells after 48 hrs by SRB assay; format: functional; settings: LOX IMVI, pooled result: one value given for 9 cell lines, strains, targets or settings
A549 [12] = test: Cytotoxicity against human A549 cells at 10 uM after 48 hrs by SRB assay; format: functional
OVCAR-4 = test: as §1; format: functional
[13] = Cytotoxicity against human SW620 cells at 10 uM after 48 hrs by SRB assay; format: functional; settings: SW-620, 48 h, read-out: GI
[14] = Cytotoxicity against human NCI-ADR-RES cells at 10 uM after 48 hrs by SRB assay; format: functional; settings: read-out: GI
[15] = Cytotoxicity against human HOP92 cells at 10 uM after 48 hrs by SRB assay; format: functional; settings: HOP-92, 48 h, read-out: GI
[16] = Cytotoxicity against human PC3 cells at 10 uM after 48 hrs by SRB assay; format: functional; settings: PC-3, 48 h, read-out: GI
[17] = Cytotoxicity against human OVCAR5 cells at 10 uM after 48 hrs by SRB assay; format: functional; settings: OVCAR-5, 48 h, read-out: GI

## Cc1nc2cc(Nc3nc(Nc4ccc(F)cc4)nc(N4CCCC4)n3)ccc2n1Cc1ccccc1
[1]
  inhibition of growth at 10 µM: 95.2%
M14
  growth inhibition (GI): Active
K562 [2]
  LC50: > 100 µM
RPMI-8226
  growth inhibition (GI): Active
OVCAR-3
  growth inhibition (GI): Active
MDA-MB-435
  growth inhibition (GI): Active
HCT-116
  growth inhibition (GI): Active
[3]
  inhibition of growth at 10 µM: 69.4%
RXF 393
  growth inhibition (GI): Active
CCRF-CEM
  LC50: > 100 µM
  GI50: 2.54 µM
  TGI: 5.28 µM
ACHN
  inhibition of growth at 10 µM: 88.5%
UACC-257
  growth inhibition (GI): Active
HCC 2998
  growth inhibition (GI): Active
BT-549
  growth inhibition (GI): Active
Calf thymus DNA [4]
  Tm: 71.5 °C
A549 [5]
  GI50: 1.82 µM
  LC50: 14.5 µM
  TGI: 4.02 µM
786-0
  GI50: 1.75 µM
  LC50 (concentration killing 50% of cells): 1.26 µM
  TGI: 3.56 µM
[6]
  LC50: 6 µM
  GI50: 1.82 µM
  TGI: 3.82 µM
SF-539
  growth inhibition (GI): Active
K562 [7]
  inhibition of growth at 10 µM: 100%
SF-295
  growth inhibition (GI): Active
[8]
  GI50: 2.08 µM
  LC50 (concentration killing 50% of cells): 8.64 µM
  TGI: 17.6 µM
HL-60(TB)
  growth inhibition (GI): Active
Calf thymus DNA [9]
  Ka: 5.23 ×10⁴ /M
MCF7
  GI50: 1.98 µM
  LC50 (concentration killing 50% of cells): 6.69 µM
  TGI: 4.88 µM
TK-10
  growth inhibition (GI): Active
SK-MEL-2
  growth inhibition (GI): Active
HCT-15
  growth inhibition (GI): Active
UACC-62
  growth inhibition (GI): Active
[10]
  CC50: 6 µM
[11]
  GI50: 1.81 µM
  LC50: 13.7 µM
  TGI: 3.68 µM
A549 [12]
  growth inhibition (GI): Active

## Cc1nc2cc(Nc3nc(Nc4ccc(F)cc4)nc(N4CCN(C)CC4)n3)ccc2n1Cc1ccccc1
OVCAR-4
  growth inhibition (GI): Active
M14
  growth inhibition (GI): Active
K562 [2]
  LC50: 8.47 µM
RPMI-8226
  growth inhibition (GI): Active
OVCAR-3
  growth inhibition (GI): Active
MDA-MB-435; MDA-MB-435, 48 h, read-out: GI
  inhibition of growth at 10 µM: 99.8%
[13]
  inhibition of growth at 10 µM: 84.4%
HCT-116
  growth inhibition (GI): Active
RXF 393
  growth inhibition (GI): Active
CCRF-CEM
  LC50: 8.47 µM
  GI50: 1.43 µM
  TGI: 4.04 µM
ACHN
  inhibition of growth at 10 µM: 90.3%
UACC-257
  growth inhibition (GI): Active
HCC 2998
  growth inhibition (GI): Active
BT-549
  growth inhibition (GI): Active
[14]
  inhibition of growth at 10 µM: 56.9%
Calf thymus DNA [4]
  Tm: 65.6 °C
[15]
  inhibition of growth at 10 µM: 97.5%
[16]
  inhibition of growth at 10 µM: 80.3%
A549 [5]
  GI50: 1.84 µM
  LC50: 7.52 µM
  TGI: 3.86 µM
786-0
  GI50: 1.77 µM
  LC50 (concentration killing 50% of cells): 9.66 µM
  TGI: 3.81 µM
[17]
  inhibition of growth at 10 µM: 57.1%
[6]
  LC50: 20.5 µM
  GI50: 1.89 µM
  TGI: 4.38 µM
SF-539
  growth inhibition (GI): Active
K562 [7]
  inhibition of growth at 10 µM: 99.6%
SF-295
  growth inhibition (GI): Active
[8]
  GI50: 1.77 µM
  LC50 (concentration killing 50% of cells): 10.8 µM
  TGI: 3.94 µM
HL-60(TB)
  growth inhibition (GI): Active
Calf thymus DNA [9]
  Ka: 2.92 ×10⁴ /M
MCF7
  GI50: 1.61 µM
  LC50 (concentration killing 50% of cells): 7.54 µM
  TGI: 3.6 µM
TK-10
  growth inhibition (GI): Active
SK-MEL-2
  growth inhibition (GI): Active
HCT-15
  growth inhibition (GI): Active
UACC-62
  growth inhibition (GI): Active
[10]
  CC50: 20.5 µM
[11]
  GI50: 1.81 µM
  LC50: 6.27 µM
  TGI: 3.37 µM
A549 [12]; A549, 48 h, read-out: GI
  inhibition of growth at 10 µM: 92.8%
